Experiments:
K562 cells = assay: CellTiter-Glo cell viability assay, K562; format: cell-based, human; details: Homo sapiens, K562; CML; 72 h, CellTiter-Glo, n = 3
Procedure: (§1) Healthy individually-derived fibroblasts were cultured in DMEM supplemented with 10% FCS. Regular cell line authentication was performed short tandem repeat (STR) analysis (DNA fingerprinting), followed by comparison with the original DSMZ cell line database.
(§2) Cell viability assay was performed with leukemic cell lines after 72 h incubation with the respective inhibitors using ATP-based CellTiter-Glo luminescent assay (Promega, Madison, WI, USA).

HPBALL cells = assay: CellTiter-Glo cell viability assay, HPBALL; format: cell-based, human; details: Homo sapiens, HPBALL; T-ALL; 72 h, CellTiter-Glo, n = 3
Procedure: as §1, §2

MOLM13 cells = assay: CellTiter-Glo cell viability assay, MOLM13; format: cell-based, human; details: Homo sapiens, MOLM-13; AML; 72 h, CellTiter-Glo, n = 3
Procedure: as §1, §2

P. falciparum 3D7 = assay: microbe, parasite or virus in culture; format: cell-based; details: Plasmodium falciparum, 3D7, 72 h; asexual blood stages, three days incubation; n ≥ 2 in duplicate, mean ± SD; read-out: Pf3D7 IC50
Procedure: (§3) [38, 39] […] After three days of incubation at 37 °C, 5% CO2 and 5% O2 plates were frozen until analyzed by HRP2-ELISA. All compounds were evaluated in duplicate in at least two independent experiments. The IC50 was determined by nonlinear regression analysis of log concentration-response curves using the drc-package v3.0.1 [40] of R v4.0.5..

P. falciparum Dd2 = assay: microbe, parasite or virus in culture; format: cell-based; details: Plasmodium falciparum, DD2, 72 h, read-out: PfDd2 IC50
Procedure: as §3

human HDAC1 (hHDAC1) = biological target: T1, human HDAC1 (hHDAC1) (Homo sapiens, UniProt Q13547); assay: In vitro human HDAC1 assay (ZMAL substrate); format: biochemical
T1 construct: purchased BPS Bioscience Inc. 50051
T1 sequence (Q13547 whole entry): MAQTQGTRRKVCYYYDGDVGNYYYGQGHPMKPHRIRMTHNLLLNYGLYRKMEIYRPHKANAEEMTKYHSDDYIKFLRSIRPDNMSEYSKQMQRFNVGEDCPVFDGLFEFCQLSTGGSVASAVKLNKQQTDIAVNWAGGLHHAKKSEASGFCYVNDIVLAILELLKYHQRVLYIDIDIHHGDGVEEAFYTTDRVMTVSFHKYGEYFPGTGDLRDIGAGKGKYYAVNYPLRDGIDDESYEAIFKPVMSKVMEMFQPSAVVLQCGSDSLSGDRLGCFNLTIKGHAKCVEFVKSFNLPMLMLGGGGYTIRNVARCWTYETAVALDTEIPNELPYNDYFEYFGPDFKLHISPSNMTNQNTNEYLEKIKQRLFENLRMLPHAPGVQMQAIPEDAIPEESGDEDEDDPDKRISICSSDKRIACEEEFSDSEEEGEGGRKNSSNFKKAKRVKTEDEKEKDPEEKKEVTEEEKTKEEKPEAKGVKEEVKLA
Procedure: (§4) OptiPlate-96 black microplates (Perkin Elmer Inc., Waltham, MA, USA) were used with an assay volume of 50 µL. […] After an incubation time of 90 min, 50 µL of 0.4 mg/mL trypsin in trypsin buffer (50 mM Tris-HCl, pH 8.0, and 100 mM NaCl) was added, followed by further incubation at 37 °C for 30 min.

human HDAC6 (hHDAC6) = biological target: T2, human HDAC6 (hHDAC6) (Homo sapiens, UniProt Q9UBN7); assay: In vitro human HDAC6 assay (ZMAL substrate); format: biochemical; details: for SI 1/6: Selectivity Index = (hHDAC1 IC50)/(hHDAC6 IC50)
T2 construct: purchased BPS Bioscience Inc. 50006
T2 sequence (Q9UBN7 1-1215): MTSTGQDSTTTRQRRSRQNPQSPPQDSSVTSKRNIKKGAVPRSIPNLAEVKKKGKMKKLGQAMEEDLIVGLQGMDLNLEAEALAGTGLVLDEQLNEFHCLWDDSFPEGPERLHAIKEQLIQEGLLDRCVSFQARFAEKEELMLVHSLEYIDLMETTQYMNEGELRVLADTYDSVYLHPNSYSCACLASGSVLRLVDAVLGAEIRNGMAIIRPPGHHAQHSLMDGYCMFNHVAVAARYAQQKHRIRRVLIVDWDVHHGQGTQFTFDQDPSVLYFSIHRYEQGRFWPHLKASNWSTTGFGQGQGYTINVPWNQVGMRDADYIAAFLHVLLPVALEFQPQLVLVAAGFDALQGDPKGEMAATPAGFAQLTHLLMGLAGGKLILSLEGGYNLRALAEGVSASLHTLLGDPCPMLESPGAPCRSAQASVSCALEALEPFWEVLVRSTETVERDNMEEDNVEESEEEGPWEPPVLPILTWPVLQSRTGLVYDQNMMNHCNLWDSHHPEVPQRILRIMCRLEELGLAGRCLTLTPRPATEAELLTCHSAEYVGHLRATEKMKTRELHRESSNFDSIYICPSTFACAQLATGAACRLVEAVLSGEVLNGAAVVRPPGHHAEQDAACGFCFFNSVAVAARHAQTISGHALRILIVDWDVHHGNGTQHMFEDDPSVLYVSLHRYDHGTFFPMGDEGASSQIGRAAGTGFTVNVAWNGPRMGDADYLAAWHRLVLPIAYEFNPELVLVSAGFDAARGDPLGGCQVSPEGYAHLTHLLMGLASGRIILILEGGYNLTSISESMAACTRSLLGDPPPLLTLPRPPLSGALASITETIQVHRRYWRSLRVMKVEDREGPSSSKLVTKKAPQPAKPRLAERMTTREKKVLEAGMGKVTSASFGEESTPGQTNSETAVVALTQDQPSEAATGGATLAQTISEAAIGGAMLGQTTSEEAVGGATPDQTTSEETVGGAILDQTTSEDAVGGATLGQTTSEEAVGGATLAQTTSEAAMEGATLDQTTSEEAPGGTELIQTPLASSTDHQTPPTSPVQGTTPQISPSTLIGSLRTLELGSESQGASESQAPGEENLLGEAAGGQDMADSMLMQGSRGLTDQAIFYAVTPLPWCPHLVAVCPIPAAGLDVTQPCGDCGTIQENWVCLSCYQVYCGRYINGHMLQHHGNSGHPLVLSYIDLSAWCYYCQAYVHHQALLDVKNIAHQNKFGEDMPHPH
Procedure: as §4

HL60 cells = assay: CellTiter-Glo cell viability assay, HL60; format: cell-based, human; details: Homo sapiens, HL-60; AML; 72 h, CellTiter-Glo, n = 3
Procedure: as §1, §2

A2780 cells = assay: MTT cell viability assay; format: cell-based; details: Homo sapiens, 72 h, n ≥ 3 in triplicate, mean ± SD
Procedure: Reagents were obtained from PAN Biotech, Aidenbach Germany. The cell line was cultured at 37 °C under humidified air with 5% CO2 to a confluence of 80–90% before being used for further assays.
Intrinsic cytotoxicity of test compounds was determined by an MTT assay as previously described. A2780 cells were seeded in 96-well plates (Starlab GmbH, Hamburg, Germany) at a density of 20,000 cells/well and allowed to attach for 12 h. Cells were then treated with increasing concentrations of the test compounds. After 72 h, MTT (3-(4,5-dimethylthiazol-2-yl)-2,5-diphenyltetrazolium bromide) (BioChemica, Applichem GmbH, Darmstadt, Germany) solution (5 mg/mL in phosphate-buffered saline) was added to determine cell survival. The formazan dye was dissolved in DMSO (Sigma-Aldrich, Darmstadt, Germany) after 1 h. Absorbance was measured at 570 nm and 690 nm in a Multiskan microplate photometer (Thermo Fisher Scientific, Waltham, MA, USA). Concentration-response curves were generated using the four-parameter logistic equation (GraphPad Prism 9.0, San Diego, USA), and mean IC50 values were calculated in triplicates based on at least three different experiments.

NALM6 cells = assay: CellTiter-Glo cell viability assay, NALM6; format: cell-based, human; details: Homo sapiens, NALM-6; B-ALL; 72 h, CellTiter-Glo, n = 3
Procedure: as §1, §2

P. falciparum Dd2 R539T = assay: In vitro P. falciparum growth inhibition assay (HRP2), Dd2 R539T; format: cell-based; details: Plasmodium falciparum, DD2, 72 h, read-out: PfDd2 R539T IC50
Procedure: Antiplasmodial activity of DHA–HDACi hybrids was evaluated against the asexual stages of the laboratory P. falciparum strains (3D7, chloroquine-sensitive strain, and Dd2, chloroquine-resistant strain, and Dd2 R539T (MRA-1255), provided by BEI Resources carrying a kelch13-mutation that conveys partial artemisinin resistance), using the histidine-rich protein 2 (HRP2) assay, as previously described. In brief: 96-well plates were precoated with the tested compounds in a three-fold serial dilution before ring-stage parasites were added in complete culture medium at a hematocrit of 1.5% and a parasitaemia of 0.05%. After three days of incubation at 37 °C, 5% CO2 and 5% O2 plates were frozen until analyzed by HRP2-ELISA. All compounds were evaluated in duplicate in at least two independent experiments. The IC50 was determined by nonlinear regression analysis of log concentration-response curves using the drc-package v3.0.1 [40] of R v4.0.5..

[1] = test system: five leukemia cell lines (K562, HL60, NALM6, HPBALL, MOLM13); assay: CellTiter-Glo cell viability assay, panel of five leukemia cell lines; format: cell-based, human; details: number of the five leukemia cell lines in which DHA is exceeded
Procedure: as §1, §2

| Compound | IC50 (K562 cells) | IC50 (HPBALL cells) | IC50 (MOLM13 cells) | IC50 (P. falciparum 3D7) | IC50 (P. falciparum Dd2) | IC50 (human HDAC1 (hHDAC1)) | IC50 (human HDAC6 (hHDAC6)) | IC50 (HL60 cells) | IC50 (A2780 cells) | IC50 (NALM6 cells) | SI 1/6 (human HDAC6 (hHDAC6)) | IC50 (P. falciparum Dd2 R539T) | inhibition at 3.33 µM (human HDAC1 (hHDAC1)) | antiproliferative activity compared to DHA [1] |
| --- | --- | --- | --- | --- | --- | --- | --- | --- | --- | --- | --- | --- | --- | --- |
| C[C@@H]1CC[C@H]2[C@@H](C)C(OCc3ccc(/C=C/C(=O)O)cc3)O[C@@H]3O[C@@]4(C)CC[C@@H]1[C@]32OO4 (stereo partly drawn) [Compound 6a, (E)-3-(4-((((3R,5aS,6R,8aS,9R,12R,12aR)-3,6,9-Trimethyldecahydro-12H-3,12-epoxy[1,2]dioxepino[4,3-i]isochromen-10-yl)oxy)methyl)phenyl)acrylic acid] | 4010 ± 600 nM | 23900 ± 4690 nM | 680 ± 90 nM | 5.9 ± 0.7 nM | 5.8 ± 2.8 nM | > 10000 nM | > 10000 nM | 2530 ± 560 nM | 3380 ± 210 nM | 1310 ± 110 nM | – | – | – | – |
| C[C@H]1[C@H](OCc2ccc(C(=O)NO)cc2)O[C@@H]2O[C@@]3(C)CC[C@H]4[C@H](C)CC[C@@H]1[C@@]24OO3 [Compound 7d, N-Hydroxy-4-((((3R,5aS,6R,8aS,9R,10R,12R,12aR)-3,6,9-trimethyldecahydro-12H-3,12-epoxy[1,2]dioxepino[4,3-i]isochromen-10-yl)oxy)methyl)benzamide] | 1000 ± 360 nM | 6810 ± 540 nM | 390 ± 50 nM | 2.8 ± 1.3 nM | 2 ± 0.7 nM | 2490 ± 240 nM | 14 ± 2 nM | 2410 ± 450 nM | 1310 ± 320 nM | 360 ± 50 nM | 178 | 1.2 ± 0.8 nM | – | – |
| C[C@@H]1CC[C@H]2[C@@H](C)C(OCc3ccc(/C=C/C(=O)Nc4ccccc4N)cc3)O[C@@H]3O[C@@]4(C)CC[C@@H]1[C@]32OO4 (stereo partly drawn) [Compound 8, (E)-N-(2-Aminophenyl)-3-(4-((((3R,5aS,6R,8aS,9R,12R,12aR)-3,6,9-trimethyldecahydro-12H-3,12-epoxy[1,2]dioxepino[4,3-i]isochromen-10-yl)oxy)methyl)phenyl)acrylamide] | 690 ± 110 nM | 1690 ± 190 nM | 490 ± 80 nM | 2.5 ± 1.4 nM | 2.5 ± 0.14 nM | > 3330 nM | > 10000 nM | 1640 ± 170 nM | 1470 ± 980 nM | 340 ± 30 nM | – | – | 41% | exceeded the antiproliferative potential of DHA in four out of five cell lines |
| C[C@H]1[C@H](Sc2ccc(CC(=O)NO)cc2)O[C@@H]2O[C@@]3(C)CC[C@H]4[C@H](C)CC[C@@H]1[C@@]24OO3 [(β)-7e, N-Hydroxy-2-(4-(((3R,5aS,6R,8aS,9R,10S,12S,12aR)-3,6,9-trimethyldecahydro-12H-3,12-epoxy[1,2]dioxepino[4,3-i]isochromen-10-yl)thio)phenyl)acetamide] | 1710 ± 330 nM | 20600 ± 6130 nM | 640 ± 170 nM | 2.6 ± 1.3 nM | 1.6 ± 0.8 nM | > 10000 nM | 1000 ± 130 nM | – | 2090 ± 420 nM | 770 ± 80 nM | >10 | – | – | – |
| C[C@@H]1CC[C@H]2[C@@H](C)C(SCCCCCC(=O)NO)O[C@@H]3O[C@@]4(C)CC[C@@H]1[C@]32OO4 (stereo partly drawn) [Compound 7b, N-Hydroxy-6-(((3R,5aS,6R,8aS,9R,12S,12aR)-3,6,9-trimethyldecahydro-12H-3,12-epoxy[1,2]dioxepino[4,3-i]isochromen-10-yl)thio)hexanamide] | 910 ± 320 nM | 2410 ± 380 nM | 580 ± 190 nM | 5.2 ± 0.4 nM | 6.6 ± 2.5 nM | 430 ± 46 nM | 45 ± 5 nM | 2070 ± 30 nM | 1520 ± 50 nM | 260 ± 10 nM | 10 | 3 ± 1.2 nM | – | – |
| C[C@H]1[C@@H](Sc2ccc(CC(=O)NO)cc2)O[C@@H]2O[C@@]3(C)CC[C@H]4[C@H](C)CC[C@@H]1[C@@]24OO3 [(α)-7e, N-Hydroxy-2-(4-(((3R,5aS,6R,8aS,9R,10R,12S,12aR)-3,6,9-trimethyldecahydro-12H-3,12-epoxy[1,2]dioxepino[4,3-i]isochromen-10-yl)thio)phenyl)acetamide] | 770 ± 240 nM | 3340 ± 370 nM | 450 ± 180 nM | 3.1 ± 0.7 nM | 1.8 ± 0.8 nM | > 10000 nM | 1100 ± 75 nM | 1620 ± 120 nM | 1830 ± 100 nM | 440 ± 10 nM | >9 | – | – | – |
